The values that follow come from patent US9242948B2, “Diepoxy compound, process for producing same, and composition containing the diepoxy compound” (Sumitomo Chemical Company, Limited, priority 2009, dated 2016).

The nature of the series: Measurement of solubility in methyl isobutyl ketone. The series is classed as physicochemical. Particulars: for Solubility: compound (g)×100/[compound (g)+methyl isobutyl ketone (g)]; for Solubility relative to that of the compound represented by the formula (A): from Table 1. The procedure: <Measurement of Solubility>
by the formula (1-1) which was obtained in Example 2, the compound represented by the formula (1-2) which was obtained in Example 6, and the compound represented by the following formula (A)
[drawing 31] (compound (g)×100/[compound (g)+methyl isobutyl ketone (g)], % by weight) were measured.

As for `O=C(OC1CCC(c2ccc(OCC3CO3)cc2)CC1)c1ccc(OCC2CO2)cc1` (centres unmarked) [formula (1-1), 4-{4-(2,3-epoxypropoxy)phenyl}cyclohexyl 4-(2,3-epoxypropoxy)benzoate], the “Solubility relative to that of the compound represented by the formula (A)” value is “more than twice as big”. Where the note is “40° C.”, this compound displayed a Solubility of 2.36 % by weight. The compound also had a Solubility (65° C.) of 4.16 % by weight.
For `Cc1cc(C(=O)OC2CCC(c3ccc(OCC4CO4)cc3)CC2)ccc1OCC1CO1` (centres unmarked) [formula (1-2), 4-{4-(2,3-epoxypropoxy)phenyl}cyclohexyl 4-(2,3-epoxypropoxy)-3-methylbenzoate] the same measures were “more than twice as big”, 2.01 % by weight and 4.70 % by weight.
Regarding `Cc1cc(OC(=O)c2ccc(OCC3CO3)cc2)ccc1OC(=O)c1ccc(OCC2CO2)cc1` (centres unmarked) [formula (A), reference compound], the Solubility runs as follows: (40° C.) 1.10 % by weight; (65° C.) 2.00 % by weight.
